Each block holds one molecule with its values, some of them ahead of it.
Experiments:
[1] = Lipophilicity, log D of compound at pH 7.4 in octanol/phosphate buffer measured by shake flask method; assay type: physicochemical
[2] = system: HaCaT; assay: Antiproliferative activity against human HaCaT cells assessed as inhibition of cell proliferation; assay type: cell-based
[3] = target: Dihydroorotate dehydrogenase (quinone), mitochondrial (Homo sapiens, UniProt Q02127); assay: Inhibition of human DHODH
Chain of Dihydroorotate dehydrogenase (quinone), mitochondrial (Q02127 whole entry): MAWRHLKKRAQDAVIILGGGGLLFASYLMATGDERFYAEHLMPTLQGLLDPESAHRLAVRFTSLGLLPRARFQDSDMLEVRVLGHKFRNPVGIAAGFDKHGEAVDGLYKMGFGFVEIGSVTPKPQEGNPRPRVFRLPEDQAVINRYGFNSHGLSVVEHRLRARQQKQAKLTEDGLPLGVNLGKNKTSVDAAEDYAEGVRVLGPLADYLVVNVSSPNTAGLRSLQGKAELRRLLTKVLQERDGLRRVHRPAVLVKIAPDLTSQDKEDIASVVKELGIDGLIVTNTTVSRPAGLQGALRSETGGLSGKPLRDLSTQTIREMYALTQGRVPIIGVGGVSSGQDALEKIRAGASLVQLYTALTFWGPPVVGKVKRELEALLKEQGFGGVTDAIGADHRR

Structure (SMILES): COc1cc(-c2cc(C(=O)O)c3ccccc3n2)ccc1OCC(=O)NCc1ccccc1
logD [1]: 0.4
IC50 [2]: > 300 µM
IC50 [3]: 3.7 µM

Structure (SMILES): COc1cc(-c2cc(C(=O)O)c3ccccc3n2)ccc1OCC(=O)Nc1ccccc1C
logD [1]: 0.8
IC50 [2]: 230 µM
IC50 [3]: 5.9 µM

Structure (SMILES): COc1cc(-c2cc(C(=O)O)c3ccccc3n2)ccc1OCC(=O)Nc1ccccc1C(F)(F)F
logD [1]: 1.3
IC50 [2]: 102 µM
IC50 [3]: 0.3 µM

Structure (SMILES): COc1cc(-c2cc(C(=O)O)c3ccccc3n2)ccc1OCC(=O)Nc1ccc(C(F)(F)F)cc1
logD [1]: 1.6
IC50 [2]: 150 µM
IC50 [3]: 2.4 µM

Structure (SMILES): COc1cc(-c2cc(C(=O)O)c3ccccc3n2)ccc1OCC(=O)Nc1cccc(Cl)c1
logD [1]: 2.3
IC50 [2]: 192 µM
IC50 [3]: 0.5 µM

Structure (SMILES): COc1cc(-c2cc(C(=O)O)c3ccccc3n2)ccc1OCC(=O)NCc1cccnc1
logD [1]: -0.8
IC50 [2]: > 300 µM
IC50 [3]: 0.7 µM

Structure (SMILES): COc1cc(-c2cc(C(=O)O)c3ccccc3n2)ccc1OCC(=O)NC12CC3CC(CC(C3)C1)C2
logD [1]: 1
IC50 [2]: 180 µM
IC50 [3]: 1.7 µM

Structure (SMILES): COc1cc(-c2cc(C(=O)O)c3ccccc3n2)ccc1OCC(=O)NC1CCCCC1
logD [1]: 0.8
IC50 [2]: > 300 µM
IC50 [3]: 1.7 µM

Structure (SMILES): COc1cc(-c2cc(C(=O)O)c3ccccc3n2)ccc1OCC(=O)Nc1ccc(Cl)cc1
logD [1]: 1.5
IC50 [2]: > 300 µM
IC50 [3]: 0.5 µM

Structure (SMILES): COc1cc(-c2cc(C(=O)O)c3ccccc3n2)ccc1OCC(=O)Nc1cccc(F)c1
logD [1]: 1.6
IC50 [2]: 148 µM
IC50 [3]: 2.1 µM

Structure (SMILES): CCCCCCNC(=O)COc1ccc(-c2cc(C(=O)O)c3ccccc3n2)cc1OC
logD [1]: 1
IC50 [2]: > 300 µM
IC50 [3]: 2.7 µM

Structure (SMILES): COc1cc(-c2cc(C(=O)O)c3ccccc3n2)ccc1OCC(=O)Nc1ccccc1
logD [1]: 0.7
IC50 [2]: > 300 µM
IC50 [3]: 3.9 µM

More lines, main results first:

logD [1]: 1.5
IC50 [3]: 1.9 µM
Structure (SMILES): COc1cc(-c2cc(C(=O)O)c3ccccc3n2)ccc1OCC(=O)Nc1cccc(C)c1
IC50 [2]: 225 µM

logD [1]: 1.1
IC50 [3]: 1.6 µM
Structure (SMILES): COc1cc(-c2cc(C(=O)O)c3ccccc3n2)ccc1OCC(=O)Nc1ccc(F)cc1
IC50 [2]: 286 µM

logD [1]: 1.2
IC50 [3]: 3.8 µM
Structure (SMILES): COc1cc(-c2cc(C(=O)O)c3ccccc3n2)ccc1OCC(=O)Nc1ccc(C)cc1
IC50 [2]: > 300 µM

logD [1]: 0
IC50 [3]: 3.1 µM
Structure (SMILES): COc1cc(-c2cc(C(=O)O)c3ccccc3n2)ccc1OCC(=O)NCc1cccs1
IC50 [2]: > 300 µM

logD [1]: -0.3
IC50 [3]: 1 µM
Structure (SMILES): COc1cc(-c2cc(C(=O)O)c3ccccc3n2)ccc1OCC(=O)NCc1ccco1
IC50 [2]: > 300 µM

logD [1]: 0.9
IC50 [3]: 0.5 µM
Structure (SMILES): COc1cc(-c2cc(C(=O)O)c3ccccc3n2)ccc1OCC(=O)Nc1ccccc1F
IC50 [2]: 161 µM

logD [1]: 1.6
IC50 [3]: 1.3 µM
Structure (SMILES): COc1cc(-c2cc(C(=O)O)c3ccccc3n2)ccc1OCC(=O)Nc1ccccc1Cl
IC50 [2]: 210 µM

logD [1]: 1.3
IC50 [3]: 0.5 µM
Structure (SMILES): COc1cc(-c2cc(C(=O)O)c3ccccc3n2)ccc1OCC(=O)Nc1cccc(C(F)(F)F)c1
IC50 [2]: 160 µM

From ChEMBL document CHEMBL4811297, “Low cytotoxic quinoline-4-carboxylic acids derived from vanillin precursors as potential human dihydroorotate dehydrogenase inhibitors” (Bioorg Med Chem Lett, 2021)
